Where “and” joins values, the source holds several entries; their conditions need not be identical. Identical values can stand only once.
Assays:
[1] = Cytotoxicity assay (CellTiter-Glo, 72 h), SKOV-3; format: cell-based, human; conditions: human
Method: (§1) Jurkat cells were cultured in RPMI1640 medium supplemented with 10% foetal bovine serum, penicillin (50 U/ml), streptomycin (50 μg/ml), and Glutamax. SKOV-3 cells were cultured in DMEM medium supplemented with 10% fetal bovine serum, penicillin (50 U/ml), and streptomycin (50 μg/ml). MESO-1 cells were cultured in RPMI1640 medium supplemented with 10% fetal bovine serum, penicillin (50 U/ml), and streptomycin (50 μg/ml). All cell lines were seeded in a 384-well plate at a density of 1000 cells/well in 20 μl of media and incubated at 37 °C in a humidified incubator with 5% CO2. After 4 h, 2-fold dilution samples resolved in DMSO were added to the cell culture at the concentration of 0.5% (0.1 μl) and incubated for 72 h. Cell viabilities were measured using a CellTiter-Glo luminescent cell viability assay and EnVision multilabel plate reader.

[2] = test system: human ovarian adenocarcinoma SKOV-3 cells; assay: Cytotoxicity assay (CellTiter-Glo, 72 h), SKOV-3; format: cell-based; conditions: raw replicate data
Method: as §1

[3] = Cytotoxicity assay (CellTiter-Glo, 72 h), MESO-1; format: cell-based; conditions: human
Method: as §1

With CO[C@H]1C[C@@H]2CC[C@@H](C)[C@@](O)(O2)C(=O)C(=O)N2CCCC[C@H]2C(=O)O[C@H]([C@H](C)C[C@@H]2CC[C@@H](O)[C@H](OC)C2)CC(=O)[C@H](C)/C=C(\C)[C@@H](O)[C@@H](OC)C(=O)[C@H](C)C[C@H](C)/C=C/C=C/C=C/1C [Compound 1, rapamycin, reference compound] the viability at 72 h ([1]; SKOV-3 cells (ovarian adenocarcinoma), SKOV-3 cells, 72 h, read-out: Plateau level of cell viability in the dose-response curve) was about 60%, the viability at 72 h, 9.53674e-05 uM ([1]; SKOV-3 cells (ovarian adenocarcinoma), conc 9.53674e-5 uM, raw replicate data, read-out: SKOV3 viability (%)) was 78.7% and the viability at 72 h, 0.000190735 uM ([1]; SKOV-3 cells (ovarian adenocarcinoma), conc 0.000190735 uM, raw replicate data, read-out: SKOV3 viability (%)) was 70.9%. The viability at 72 h, 0.00038147 uM ([1]; SKOV-3 cells (ovarian adenocarcinoma), conc 0.00038147 uM, raw replicate data, read-out: SKOV3 viability (%)) was 75.1%, the viability at 72 h, 0.000762939 uM ([1]; SKOV-3 cells (ovarian adenocarcinoma), conc 0.000762939 uM, raw replicate data, read-out: SKOV3 viability (%)) was 62.9% and the viability at 72 h, 0.00152588 uM ([1]; SKOV-3 cells (ovarian adenocarcinoma), conc 0.00152588 uM, raw replicate data, read-out: SKOV3 viability (%)) was 110%. The viability at 72 h, 0.00305176 uM ([1]; SKOV-3 cells (ovarian adenocarcinoma), conc 0.00305176 uM, raw replicate data, read-out: SKOV3 viability (%)) was 70.7%, the viability at 72 h, 0.00610352 uM ([1]; SKOV-3 cells (ovarian adenocarcinoma), conc 0.00610352 uM, raw replicate data, read-out: SKOV3 viability (%)) was 64.7% and the viability at 72 h, 0.012207 uM ([1]; SKOV-3 cells (ovarian adenocarcinoma), conc 0.012207 uM, raw replicate data, read-out: SKOV3 viability (%)) was 59.4%. It also gave a viability at 72 h, 0.0244141 uM ([1]; SKOV-3 cells (ovarian adenocarcinoma), conc 0.0244141 uM, raw replicate data, read-out: SKOV3 viability (%)) of 57.9%, a viability at 72 h, 0.0488281 uM ([1]; SKOV-3 cells (ovarian adenocarcinoma), conc 0.0488281 uM, raw replicate data, read-out: SKOV3 viability (%)) of 61.1% and a viability at 72 h, 0.0976562 uM ([1]; SKOV-3 cells (ovarian adenocarcinoma), conc 0.0976562 uM, raw replicate data, read-out: SKOV3 viability (%)) of 61.7%. The viability at 72 h, 0.195312 uM ([1]; SKOV-3 cells (ovarian adenocarcinoma), conc 0.195312 uM, raw replicate data, read-out: SKOV3 viability (%)) was 59.4%, the viability at 72 h, 0.390625 uM ([1]; SKOV-3 cells (ovarian adenocarcinoma), conc 0.390625 uM, raw replicate data, read-out: SKOV3 viability (%)) was 59.7% and the viability at 72 h, 12.5 uM ([1]; SKOV-3 cells (ovarian adenocarcinoma), conc 12.5 uM, raw replicate data, read-out: SKOV3 viability (%)) was 57.5%. The viability at 72 h, 25 uM ([1]; SKOV-3 cells (ovarian adenocarcinoma), conc 25 uM, raw replicate data, read-out: SKOV3 viability (%)) was 54.8%, the viability at 72 h, 0.78125 uM ([1]; SKOV-3 ovarian adenocarcinoma cells, conc 0.78125 uM, raw replicate data, read-out: SKOV3 viability (%)) was 55.3% and the viability at 72 h, 1.5625 uM ([1]; SKOV-3 ovarian adenocarcinoma cells, conc 1.5625 uM, raw replicate data, read-out: SKOV3 viability (%)) was 58.8%. For the same molecule, the viability at 72 h, 3.125 uM ([1]; SKOV-3 ovarian adenocarcinoma cells, conc 3.125 uM, raw replicate data, read-out: SKOV3 viability (%)) was 57.4%, the viability at 72 h, 6.25 uM ([1]; SKOV-3 ovarian adenocarcinoma cells, conc 6.25 uM, raw replicate data, read-out: SKOV3 viability (%)) was 63.1% and the “SKOV3 viability (%)” value ([2]; conc 9.53674e-5 uM) was 85.5% and 83.5%. For the same molecule, the “SKOV3 viability (%)” value ([2]; conc 0.000190735 uM) was 77.8%, the “SKOV3 viability (%)” value ([2]; conc 0.00038147 uM) was 76.1% and 77.6% and the “SKOV3 viability (%)” value ([2]; conc 0.000762939 uM) was 63.5% and 66.3%. The “SKOV3 viability (%)” value ([2]; conc 0.00152588 uM) was 104.6% and 106.1%, the “SKOV3 viability (%)” value ([2]; conc 0.00305176 uM) was 68.3% and 63.8% and the “SKOV3 viability (%)” value ([2]; conc 0.00610352 uM) was 65.9%. The “SKOV3 viability (%)” value ([2]; conc 0.012207 uM) was 65.2% and 58.2%, the “SKOV3 viability (%)” value ([2]; conc 0.0244141 uM) was 61.9% and 60.6% and the “SKOV3 viability (%)” value ([2]; conc 0.0488281 uM) was 65.4% and 58.1%. For the same molecule, the “SKOV3 viability (%)” value ([2]; conc 0.0976562 uM) was 60.9% and 62.0%, the “SKOV3 viability (%)” value ([2]; conc 0.195312 uM) was 60.7% and 56.3% and the “SKOV3 viability (%)” value ([2]; conc 0.390625 uM) was 59.9% and 61.0%. The “SKOV3 viability (%)” value ([2]; conc 0.78125 uM) was 54.1% and 58.4%, the “SKOV3 viability (%)” value ([2]; conc 1.5625 uM) was 63.0% and the “SKOV3 viability (%)” value ([2]; conc 3.125 uM) was 54.7%. The “SKOV3 viability (%)” value ([2]; conc 6.25 uM) was 63.2%, the “SKOV3 viability (%)” value ([2]; conc 12.5 uM) was 56.9% and the “SKOV3 viability (%)” value ([2]; conc 25 uM) was 55.5%. For the same molecule, the “SKOV3 viability (%)” value ([2]; conc 50 uM) was 16.3% and 24.9% and 9.3%, the viability at 72 h ([3]; MESO-1 cells (malignant pleural mesothelioma), MESO-1 cells, 72 h, read-out: Plateau level of cell viability in the dose-response curve) was about 75% and the viability at 72 h, 9.53674e-05 uM ([3]; MESO-1 malignant pleural mesothelioma cells, conc 9.53674e-5 uM, raw replicate data, read-out: MESO1 viability (%)) was 79%. The viability at 72 h, 0.000190735 uM ([3]; MESO-1 malignant pleural mesothelioma cells, conc 0.000190735 uM, raw replicate data, read-out: MESO1 viability (%)) was 73.6%, the viability at 72 h, 0.00038147 uM ([3]; MESO-1 malignant pleural mesothelioma cells, conc 0.00038147 uM, raw replicate data, read-out: MESO1 viability (%)) was 83.4% and the viability at 72 h, 0.000762939 uM ([3]; MESO-1 malignant pleural mesothelioma cells, conc 0.000762939 uM, raw replicate data, read-out: MESO1 viability (%)) was 73.1%. For the same molecule, the viability at 72 h, 0.00152588 uM ([3]; MESO-1 malignant pleural mesothelioma cells, conc 0.00152588 uM, raw replicate data, read-out: MESO1 viability (%)) was 116%, the viability at 72 h, 0.00305176 uM ([3]; MESO-1 malignant pleural mesothelioma cells, conc 0.00305176 uM, raw replicate data, read-out: MESO1 viability (%)) was 69.5% and the viability at 72 h, 0.00610352 uM ([3]; MESO-1 malignant pleural mesothelioma cells, conc 0.00610352 uM, raw replicate data, read-out: MESO1 viability (%)) was 78.3%. For the same molecule, the viability at 72 h, 0.012207 uM ([3]; MESO-1 malignant pleural mesothelioma cells, conc 0.012207 uM, raw replicate data, read-out: MESO1 viability (%)) was 77.6%, the viability at 72 h, 0.0244141 uM ([3]; MESO-1 malignant pleural mesothelioma cells, conc 0.0244141 uM, raw replicate data, read-out: MESO1 viability (%)) was 75.2% and the viability at 72 h, 0.0488281 uM ([3]; MESO-1 malignant pleural mesothelioma cells, conc 0.0488281 uM, raw replicate data, read-out: MESO1 viability (%)) was 75%. For the same molecule, the viability at 72 h, 0.0976562 uM ([3]; MESO-1 malignant pleural mesothelioma cells, conc 0.0976562 uM, raw replicate data, read-out: MESO1 viability (%)) was 77%, the viability at 72 h, 0.195312 uM ([3]; MESO-1 malignant pleural mesothelioma cells, conc 0.195312 uM, raw replicate data, read-out: MESO1 viability (%)) was 74.8% and the viability at 72 h, 0.390625 uM ([3]; MESO-1 malignant pleural mesothelioma cells, conc 0.390625 uM, raw replicate data, read-out: MESO1 viability (%)) was 75.6%. For the same molecule, the viability at 72 h, 0.78125 uM ([3]; MESO-1 malignant pleural mesothelioma cells, conc 0.78125 uM, raw replicate data, read-out: MESO1 viability (%)) was 68.5%, the viability at 72 h, 1.5625 uM ([3]; MESO-1 malignant pleural mesothelioma cells, conc 1.5625 uM, raw replicate data, read-out: MESO1 viability (%)) was 76.4% and the viability at 72 h, 3.125 uM ([3]; MESO-1 malignant pleural mesothelioma cells, conc 3.125 uM, raw replicate data, read-out: MESO1 viability (%)) was 73.6%. The viability at 72 h, 6.25 uM ([3]; MESO-1 malignant pleural mesothelioma cells, conc 6.25 uM, raw replicate data, read-out: MESO1 viability (%)) was 74.3%, the viability at 72 h, 12.5 uM ([3]; MESO-1 malignant pleural mesothelioma cells, conc 12.5 uM, raw replicate data, read-out: MESO1 viability (%)) was 71.1% and the viability at 72 h, 25 uM ([3]; MESO-1 malignant pleural mesothelioma cells, conc 25 uM, raw replicate data, read-out: MESO1 viability (%)) was 63.9%.
